# In patent publication US4396626A, “Cyclic compounds and their use” (Beecham Group Limited, priority 1980, dated 1983):
# Where a name gives a salt, the structure may show the parent alone.
# Columns and labels:
# [1] = test system: phenyl-p-quinone writhing in mice; experiment: Analgesic activity: phenyl-p-quinone induced writhing in mice; type: in vivo, male T/O mice; details: 1 hour prior to phenyl-p-quinone injection, observed 8 minutes, Litchfield and Wilcoxon; for ED50: Mus musculus, po, read-out: ED50 (mice prevented from writhing)
# Procedure: Groups of 10 male T/O mice weighing between 20 and 25 g were injected intraperitoneally with 0.2 ml of a 0.02% solution of phenyl-p-quinone maintained at 37° C. […] Compounds were administered orally 1 hour prior to phenyl-p-quinone injection. The percentage of mice prevented from writhing in each group was plotted against dose of compound on log probit paper and the ED50 was calculated by the method of Litchfield, J. T. and Wilcoxon, F. (1949), J. Pharmac. exp. Ther., 96 (2), 99-113.
# [2] = test system: carrageenin-induced oedema in rat paw; experiment: Anti-inflammatory activity: standard rat paw carrageenin-induced oedema test; type: in vivo, male Wistar rats; details: 1 hr before carrageenin
# Procedure: The sodium salt of compound (1) was tested for anti-inflammatory activity by the standard rat paw carrageenin-induced oedema test:
# Groups of 8 male Wistar rats weighing between 120 and 165 g. were dosed orally with the compound 1 hr. before the sub-cutaneous injection of 0.1 ml 1.5% carrageenin into a paw to induce oedema. The duration of the oedema was 3-31/2 hr. The significance of results was assessed by Student's `t` test.
Structure (SMILES),ED50 [1],"% inhibition of oedema w.r.t. methylcellulose control ([2]; 1.67 mg/kg p.o., *0.001 < p < 0.01)","% inhibition of oedema w.r.t. methylcellulose control ([2]; 5 mg/kg p.o., **p < 0.001)","% inhibition of oedema w.r.t. methylcellulose control ([2]; 15 mg/kg p.o., **p < 0.001)","ED25 ([2]; rat, oral, read-out: ED25 (inhibition of oedema))","ED50 (mice prevented from writhing) ([1]; oral, listed as No salt thereof)"
"CC(=O)CCc1cc(C(F)(F)F)c(C(=O)c2ccc(Cl)cc2)n1C [(13), 4-[5'-(4""-chlorobenzoyl)-1'-methyl-4'-trifluoromethyl-2'-pyroyl]butan-2-one]",25 mg/kg,,,,,
"Cn1c(CC(=O)O)cc(C(F)(F)F)c1C(=O)c1ccc(Cl)cc1 [(1), 5-p-Chlorobenzoyl-1-methyl-4-trifluoromethylpyrrole-2-acetic acid]",1.75 mg/kg,,,,,
Cn1c(CC(=O)O)cc(C(F)(F)F)c1C(=O)c1ccc(Cl)cc1 [sodium salt of compound (1)],,18%,25%,30%,5.5 mg/kg,1.6 mg/kg p.o.
